The results in this text go back to US11459315B2, “Modulators of methyl modifying enzymes, compositions and uses thereof” (Constellation Pharmaceuticals, Inc., priority 2017, dated 2022).

Like-named read-outs stand apart in the source and are kept apart here.

The subject of assay [1] is H3K27me3 mark in HeLa cells (EZH2). As to the kind of experiment: H3K27me3 Alpha Hela Assay (AlphaLISA). Type of assay: cell-based. Particulars: Homo sapiens, HeLa, 72 h, HeLa cells, 72 hrs; read-out: EZH2 Cell H3K27me3 Alpha HeLa (EC50 K27me3). A digest of the protocol:
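HeLa cells (1,000/well) treated with ten 3-fold compound doses for 72 h at 37 °C; lysates extracted and H3K27me3 detected by AlphaLISA with anti-K27me3 acceptor beads, biotinylated anti-H3 (3 nM) and streptavidin donor beads. EC50 from DMSO-normalized dose-response curves; duplicate plate assessed viability.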
In general terms: Bead proximity is the source of the signal in Alpha formats.

The target in the next assay is PRC2 containing wt EZH2 (Homo sapiens (Human), UniProt Q15910). As to the kind of experiment: EZH2 biochemical assay (IC50), 3H-SAM incorporation into biotinylated H3 peptide. To be noted: 30 pM PRC2 containing wt EZH2, 3-5 h pre-incubation. A digest of the protocol: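 Activity was measured as ³H-methyl transfer to a biotinylated H3K27me1 peptide over 18-22 h at room temperature, with capture on streptavidin flash plates. The 30 pM wt-EZH2 PRC2 complex was first pre-incubated 3-5 h with compound, 450 nM SAM/450 nM ³H-SAM and 2 µM H3K27me3 activator (pH 8.5, 0.8% DMSO). Four-parameter fits gave IC50.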
PRC2 containing wt EZH2, sequence (Q15910 whole entry): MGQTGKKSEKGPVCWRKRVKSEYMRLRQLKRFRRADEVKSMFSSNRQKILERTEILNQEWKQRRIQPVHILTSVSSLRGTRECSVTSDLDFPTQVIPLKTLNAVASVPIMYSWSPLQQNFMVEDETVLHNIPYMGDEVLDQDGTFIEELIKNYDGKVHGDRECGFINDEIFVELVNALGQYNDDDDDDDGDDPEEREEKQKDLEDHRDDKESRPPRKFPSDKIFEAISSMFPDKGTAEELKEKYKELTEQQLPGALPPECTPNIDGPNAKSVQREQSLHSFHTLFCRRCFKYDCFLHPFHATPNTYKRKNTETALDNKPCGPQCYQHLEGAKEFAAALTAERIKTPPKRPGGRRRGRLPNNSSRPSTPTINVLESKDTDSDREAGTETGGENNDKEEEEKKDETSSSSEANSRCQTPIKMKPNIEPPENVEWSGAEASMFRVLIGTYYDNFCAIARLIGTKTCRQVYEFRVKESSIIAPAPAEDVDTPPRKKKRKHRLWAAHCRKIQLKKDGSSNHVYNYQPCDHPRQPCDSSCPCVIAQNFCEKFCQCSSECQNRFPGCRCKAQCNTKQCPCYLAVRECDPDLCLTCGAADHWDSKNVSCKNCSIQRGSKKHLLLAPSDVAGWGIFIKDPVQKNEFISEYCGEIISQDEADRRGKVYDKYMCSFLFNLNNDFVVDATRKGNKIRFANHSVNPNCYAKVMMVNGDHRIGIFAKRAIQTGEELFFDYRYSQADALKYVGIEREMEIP
PRC2 containing wt EZH2, sequence (O75530 whole entry partner): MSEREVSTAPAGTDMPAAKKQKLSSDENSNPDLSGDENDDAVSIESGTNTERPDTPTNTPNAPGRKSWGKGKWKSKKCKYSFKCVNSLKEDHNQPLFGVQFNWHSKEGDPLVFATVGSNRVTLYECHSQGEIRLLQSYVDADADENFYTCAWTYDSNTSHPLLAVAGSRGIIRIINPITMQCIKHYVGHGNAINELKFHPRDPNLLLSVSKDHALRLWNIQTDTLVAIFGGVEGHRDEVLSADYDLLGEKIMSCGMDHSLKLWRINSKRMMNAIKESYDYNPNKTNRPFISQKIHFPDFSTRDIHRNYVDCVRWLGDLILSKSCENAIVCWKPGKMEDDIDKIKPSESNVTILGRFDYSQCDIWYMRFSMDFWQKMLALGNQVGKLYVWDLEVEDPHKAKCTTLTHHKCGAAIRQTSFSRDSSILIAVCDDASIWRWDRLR
PRC2 containing wt EZH2, sequence (Q15022 whole entry partner): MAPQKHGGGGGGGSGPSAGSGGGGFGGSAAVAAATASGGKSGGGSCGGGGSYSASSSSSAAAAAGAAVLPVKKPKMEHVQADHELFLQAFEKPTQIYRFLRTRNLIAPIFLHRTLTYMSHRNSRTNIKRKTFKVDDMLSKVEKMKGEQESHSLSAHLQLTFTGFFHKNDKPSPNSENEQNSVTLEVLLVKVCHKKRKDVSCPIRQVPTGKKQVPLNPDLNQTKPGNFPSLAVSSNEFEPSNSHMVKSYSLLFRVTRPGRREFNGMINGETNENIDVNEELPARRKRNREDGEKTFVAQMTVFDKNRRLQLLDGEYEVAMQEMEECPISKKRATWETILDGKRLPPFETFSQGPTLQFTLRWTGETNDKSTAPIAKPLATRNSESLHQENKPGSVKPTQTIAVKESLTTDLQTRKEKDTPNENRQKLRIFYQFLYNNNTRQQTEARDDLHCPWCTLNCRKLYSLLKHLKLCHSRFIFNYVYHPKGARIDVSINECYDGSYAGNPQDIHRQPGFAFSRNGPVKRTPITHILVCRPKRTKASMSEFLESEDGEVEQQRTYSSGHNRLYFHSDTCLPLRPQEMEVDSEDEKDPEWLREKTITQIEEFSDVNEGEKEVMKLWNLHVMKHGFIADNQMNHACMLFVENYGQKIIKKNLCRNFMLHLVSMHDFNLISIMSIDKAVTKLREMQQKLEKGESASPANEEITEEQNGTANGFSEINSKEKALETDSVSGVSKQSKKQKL
PRC2 containing wt EZH2, sequence (Q09028 whole entry partner): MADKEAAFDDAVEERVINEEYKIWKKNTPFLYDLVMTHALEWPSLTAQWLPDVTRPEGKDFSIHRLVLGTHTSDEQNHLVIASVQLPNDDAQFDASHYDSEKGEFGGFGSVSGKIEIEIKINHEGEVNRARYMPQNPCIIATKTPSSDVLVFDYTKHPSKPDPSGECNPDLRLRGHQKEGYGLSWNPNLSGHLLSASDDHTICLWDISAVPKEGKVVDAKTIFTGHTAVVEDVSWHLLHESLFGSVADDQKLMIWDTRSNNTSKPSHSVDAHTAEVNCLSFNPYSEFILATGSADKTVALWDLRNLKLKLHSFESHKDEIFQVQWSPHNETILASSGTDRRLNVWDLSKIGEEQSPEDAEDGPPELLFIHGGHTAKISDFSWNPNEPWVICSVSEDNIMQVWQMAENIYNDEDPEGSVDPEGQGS
PRC2 containing wt EZH2, sequence (Q6ZN18 whole entry partner): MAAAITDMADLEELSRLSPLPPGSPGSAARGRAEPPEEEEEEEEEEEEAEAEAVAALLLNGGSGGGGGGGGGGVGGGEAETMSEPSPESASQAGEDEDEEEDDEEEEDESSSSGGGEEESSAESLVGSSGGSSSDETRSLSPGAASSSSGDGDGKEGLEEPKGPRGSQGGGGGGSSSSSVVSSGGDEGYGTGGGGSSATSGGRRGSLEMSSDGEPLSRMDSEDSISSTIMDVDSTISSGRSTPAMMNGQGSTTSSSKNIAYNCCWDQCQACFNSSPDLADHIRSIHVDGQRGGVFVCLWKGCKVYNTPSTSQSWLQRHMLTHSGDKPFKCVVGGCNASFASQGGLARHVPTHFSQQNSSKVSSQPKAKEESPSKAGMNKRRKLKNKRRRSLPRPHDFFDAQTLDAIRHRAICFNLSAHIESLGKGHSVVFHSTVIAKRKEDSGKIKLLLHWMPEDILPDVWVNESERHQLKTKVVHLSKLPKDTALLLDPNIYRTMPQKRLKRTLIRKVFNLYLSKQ

Consider `CSc1cc(C)[nH]c(=O)c1CNC(=O)c1c(C)n([C@H](C)C23CC(N(C)C4COC4)(C2)C3)c2ccccc12` [Example 9, (R)-2-methyl-1-(1-(3-(methyl(oxetan-3-yl)amino)bicyclo[1.1.1]pentan-1-yl)ethyl)-N-((6-methyl-4-(methylthio)-2-oxo-1,2-dihydropyridin-3-yl)methyl)-1H-indole-3-carboxamide], for which the 50% effective concentration (EC50) (as a rule, the midpoint of the concentration-response curve) in assay [1] is less than 10 nM. Besides, the IC50 (in general, the concentration that gives 50% inhibition) at PRC2 containing wt EZH2 (read-out: EZH2 (IC50)) was less than 0.5 nM.

With `CSc1cc(C)[nH]c(=O)c1CNC(=O)c1c(C)n([C@H](C)C23CC(N(C)CC(F)(F)F)(C2)C3)c2ccccc12` [Example 10, (R)-2-methyl-1-(1-(3-(methyl(2,2,2-trifluoroethyl)amino)bicyclo[1.1.1]pentan-1-yl)ethyl)-N-((6-methyl-4-(methylthio)-2-oxo-1,2-dihydropyridin-3-yl)methyl)-1H-indole-3-carboxamide], the EC50 in assay [1] was less than 10 nM. The IC50 on PRC2 containing wt EZH2 (read-out: EZH2 (IC50)) is less than 0.5 nM.

In the case of `CSc1cc(C)[nH]c(=O)c1CNC(=O)c1c(C)n([C@H](C)C2CCN(CC(C)(C)O)CC2)c2ccccc12` [Example 11, (R)-1-(1-(1-(2-hydroxy-2-methylpropyl)piperidin-4-yl)ethyl)-2-methyl-N-((6-methyl-4-(methylthio)-2-oxo-1,2-dihydropyridin-3-yl)methyl)-1H-indole-3-carboxamide], in assay [1], the EC50 is 10 to 100 nM. In addition, on PRC2 containing wt EZH2 (EZH2 (IC50)), the IC50 is less than 0.5 nM.

For the compound `CSc1cc(C)[nH]c(=O)c1CNC(=O)c1c(C)n([C@H](C)C2CCN(CC(F)(F)F)CC2)c2ccccc12` [Example 12, (R)-2-methyl-N-((6-methyl-4-(methylthio)-2-oxo-1,2-dihydropyridin-3-yl)methyl)-1-(1-(1-(2,2,2-trifluoroethyl)piperidin-4-yl)ethyl)-1H-indole-3-carboxamide], the EC50 in assay [1] was less than 10 nM. The compound further showed an IC50 against PRC2 containing wt EZH2 (EZH2 (IC50)) of less than 0.5 nM.

Take `CSc1cc(C)[nH]c(=O)c1CNC(=O)c1c(C)n([C@H](C)C2CCOCC2)c2ccccc12` [Example 13, (R)-2-methyl-N-((6-methyl-4-(methylthio)-2-oxo-1,2-dihydropyridin-3-yl)methyl)-1-(1-(tetrahydro-2H-pyran-4-yl)ethyl)-1H-indole-3-carboxamide]: the EC50 in assay [1] is less than 10 nM. On PRC2 containing wt EZH2 (EZH2 (IC50)), this compound came in with a half-maximal inhibitory concentration (IC50) of less than 0.5 nM.

Turning to `CNC1COC([C@@H](C)n2c(C)c(C(=O)NCc3c(SC)cc(C)[nH]c3=O)c3ccccc32)OC1` (stereo partly drawn) [Example 17, (R)-2-methyl-N-((6-methyl-4-(methylthio)-2-oxo-1,2-dihydropyridin-3-yl)methyl)-1-(1-(5-(methylamino)-1,3-dioxan-2-yl)ethyl)-1H-indole-3-carboxamide], in assay [1], the EC50 is less than 10 nM. Moreover, the IC50 on PRC2 containing wt EZH2 (read-out: EZH2 (IC50)) is less than 0.5 nM.

Turning to `CSc1cc(C)[nH]c(=O)c1CNC(=O)c1c(C)n([C@H](C)C2CCN(CC(F)(F)F)CC2)c2ncccc12` [Example 25, (R)-2-methyl-N-((6-methyl-4-(methylthio)-2-oxo-1,2-dihydropyridin-3-yl)methyl)-1-(1-(1-(2,2,2-trifluoroethyl)piperidin-4-yl)ethyl)-1H-pyrrolo[2,3-b]pyridine-3-carboxamide], the EC50 in assay [1] was less than 10 nM. This compound also registered an IC50 against PRC2 containing wt EZH2 (EZH2 (IC50)) of less than 0.5 nM.

With `CSc1cc(C)[nH]c(=O)c1CNC(=O)c1c(C)n([C@H](C)C2CCN(C3CC3)CC2)c2ncccc12` [Example 26, (R)-1-(1-(1-cyclopropylpiperidin-4-yl)ethyl)-2-methyl-N-((6-methyl-4-(methylthio)-2-oxo-1,2-dihydropyridin-3-yl)methyl)-1H-pyrrolo[2,3-b]pyridine-3-carboxamide], the EC50 in assay [1] was less than 10 nM. The 50% inhibitory concentration (IC50) on PRC2 containing wt EZH2 (EZH2 (IC50)) is less than 0.5 nM.

For the compound `CSc1cc(C)[nH]c(=O)c1CNC(=O)c1c(C)n([C@H](C)C2CCC(N3CC(OC(F)F)C3)CC2)c2cc(F)ccc12` (stereo partly drawn) [Example 29, 1-((R)-1-(4-(3-(difluoromethoxy)azetidin-1-yl)cyclohexyl)ethyl)-6-fluoro-2-methyl-N-((6-methyl-4-(methylthio)-2-oxo-1,2-dihydropyridin-3-yl)methyl)-1H-indole-3-carboxamide], in assay [1], the 50% effective concentration (EC50) is less than 10 nM. Moreover, the concentration for half-maximal inhibition (IC50) on PRC2 containing wt EZH2 (read-out: EZH2 (IC50)) was less than 0.5 nM.
